Measurements reported in patent publication US8476265B2, “Compounds-801” (AstraZeneca AB, priority 2010, dated 2013).

Tests used:
[1] = molecular target: T1, human muscarinic acetylcholine M3 receptor (Homo sapiens, UniProt P20309); assay: Muscarinic 3 receptor binding assay ([3H]NMS competition, SPA), single concentration 1 μM; details: 1 μM compound; % inhibition specific [3H]-NMS binding
T1 construct: expressed in transfected cells; host or cells: CHO-K1 (Chinese Hamster Ovary) cell membranes
Experimental: The following experimental procedure was used to determine the M3% inhibition at 1 μM of the compounds of Examples 99-175
Muscarinic 3 Receptor Binding Assay
The activity (% inhibition specific binding) of compounds on the M3 receptor is determined by competition binding of [^3H]N-methyl scopolamine (NMS) to CHO-K1 (Chinese Hamster Ovary) cell membranes expressing the human muscarinic acetylcholine M3 receptor (M3-ACh) in a scintillation proximity assay (SPA) format. SPA beads are precoated with membranes and then incubated at 2 mg of beads per well with 1 μM compound of the invention, [^3H]NMS at 0.1 nM, quarter Kd (experimentally determined dissociation constant) and assay buffer (20 mM HEPES pH 7.4 containing 5 mM MgCl2 and 0.1% (w/v) bovine serum albumin). The assay is conducted in a final volume of 200 μL, in the presence of 1% (v/v) dimethyl sulphoxide (DMSO). Total binding of [^3H]NMS is determined in the absence of competing compound and non-specific binding of [^3H]NMS is determined in the presence of 1 μM atropine. The plates are incubated for 16 hours at room temperature and then read on Wallac Microbeta™ using a normalised ^3H protocol. The compound activity at 1 μM, defined as % inhibition specific [^3H]-NMS binding, is determined.

Adrenergic β2 = molecular target: T2, Adrenergic β2 (Homo sapiens, UniProt P07550); assay: Adrenergic β2 mediated cAMP production in H292 cells, single concentration 1 μM; type: cell-based; details: NCI-H292, 1 μM compound, cAMP as percentage of the maximum response generated by 1E-07M formoterol, read-out: β2 % effect @1 uM
T2 construct: Adherent H292 cells are removed from tissue culture flasks by treatment with Accutase™ cell detachment solution; endogenous in cells; host or cells: H292 cells
Experimental: The following experimental procedure was used to measure the beta-2% effect at 1 μM for the compounds of Examples 99-175. Adrenergic p2 Mediated cAMP Production Cell Preparation
H292 cells are grown in 225 cm2 flasks incubator at 37° C., 5% CO2 in RPMI medium containing 10% (v/v) FBS (foetal bovine serum) and 2 mM L-glutamine.
Compounds are prepared by an initial first dilution into DMSO to give 1 mM stock concentration. This is followed by a 1 in 10 dilution of the stock concentration (10 μl stock compound +90 μl DMSO) to give 0.1 mM compound. A compound addition plate is prepared by making a further 1 in 25 dilution in assay buffer (HBSS solution containing 10 mM HEPES pH7.4 and 5 mM glucose) containing 4% dimethylsulfoxide. The final compound concentration in assay is 1 μM.
Adherent H292 cells are removed from tissue culture flasks by treatment with Accutase™ cell detachment solution for 15 minutes. Flasks are incubated for 15 minutes in a humidified incubator at 37° C., 5% CO2. Detached cells are re-suspended in RPMI media (containing 10% (v/v) FBS and 2 mM L-glutamine) at 0.1×10^6 cells per mL. 10000 cells in 100 μL are added to each well of a tissue-culture-treated 96-well plate and the cells incubated overnight in a humidified incubator at 37° C., 5% CO2. The culture media is removed and cells are washed twice with 100 μL assay buffer and replaced with 50 μL assay buffer (HBSS solution containing 10 mM HEPES pH7.4 and 5 mM glucose). Cells are rested at room temperature for 20 minutes after which time 25 μL of rolipram (1.2 mM made up in assay buffer) is added. Cells are incubated with rolipram for 10 minutes after which time 25 μl test compounds are added and the cells are incubated for 60 minutes at room temperature. The final rolipram concentration in the assay is 300 μM and final vehicle concentration is 1% (v/v) dimethylsulphoxide. The reaction is stopped by removing supernatants, washing once with 100 μL assay buffer and replacing with 50 μL lysis buffer. The cell monolayer is frozen at −80° C. for 30 minutes (or overnight).
AlphaScreen™ cAMP Detection
The concentration of cAMP (cyclic adenosine monophosphate) in the cell lysate is determined using AlphaScreen™ methodology. The frozen cell plate is thawed for 20 minutes on a plate shaker then 10 μL of the cell lysate is transferred to a 96-well white plate. 40 μl of mixed AlphaScreen™ detection beads (containing equal volumes of donor beads (pre-incubated with biotinylated cAMP in the dark for 30 minutes) and acceptor beads is added to each well and the plate incubated at room temperature for 3 hours in the dark. The AlphaScreen™ signal is measured using an EnVision spectrophotometer (Perkin-Elmer Inc.) with the recommended manufacturer's settings. Concentration of cAMP produced per well were calculated with reference to the cAMP standard curve determined in the same experiment and expressed as a percentage of the maximum response generated by 1E-07M formoterol.

T2 sequence (P07550 whole entry): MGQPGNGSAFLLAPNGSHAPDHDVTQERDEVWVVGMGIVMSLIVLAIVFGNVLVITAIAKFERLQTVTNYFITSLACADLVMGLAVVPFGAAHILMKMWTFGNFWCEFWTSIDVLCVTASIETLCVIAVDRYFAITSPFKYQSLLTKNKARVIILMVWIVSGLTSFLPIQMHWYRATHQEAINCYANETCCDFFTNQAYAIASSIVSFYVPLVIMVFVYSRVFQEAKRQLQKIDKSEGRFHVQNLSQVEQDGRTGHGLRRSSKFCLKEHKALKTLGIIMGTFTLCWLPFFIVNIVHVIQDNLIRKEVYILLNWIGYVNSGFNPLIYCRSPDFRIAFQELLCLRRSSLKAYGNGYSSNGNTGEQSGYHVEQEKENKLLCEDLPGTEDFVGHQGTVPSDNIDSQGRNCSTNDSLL
T1 sequence (P20309 whole entry): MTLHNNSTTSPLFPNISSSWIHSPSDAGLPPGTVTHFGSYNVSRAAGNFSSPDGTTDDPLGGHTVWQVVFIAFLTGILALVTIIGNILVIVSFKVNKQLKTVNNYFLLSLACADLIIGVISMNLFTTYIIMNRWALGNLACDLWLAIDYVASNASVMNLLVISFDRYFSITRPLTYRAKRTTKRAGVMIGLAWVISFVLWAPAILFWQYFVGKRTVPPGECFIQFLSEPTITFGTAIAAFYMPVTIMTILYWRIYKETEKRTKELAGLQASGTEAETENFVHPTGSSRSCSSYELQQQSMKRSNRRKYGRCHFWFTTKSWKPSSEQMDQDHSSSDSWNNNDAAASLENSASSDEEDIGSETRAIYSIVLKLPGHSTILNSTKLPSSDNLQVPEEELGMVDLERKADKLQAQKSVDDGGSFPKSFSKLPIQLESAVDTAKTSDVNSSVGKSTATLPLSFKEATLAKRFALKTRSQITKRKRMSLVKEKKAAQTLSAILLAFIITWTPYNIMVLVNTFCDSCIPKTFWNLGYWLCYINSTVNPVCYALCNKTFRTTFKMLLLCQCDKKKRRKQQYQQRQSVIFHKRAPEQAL

| SMILES | inhibition at 1 µM [1] [%] | percent of formoterol maximum response at 1 µM (Adrenergic β2) [%] |
| --- | --- | --- |
| O=C1COc2c(CCNCCN(C(=O)CCOCCc3cccc(CN4CCC5(CC4)CN(C(=O)c4ccc(-n6ccnc6)cc4)CCO5)c3)C3CCCCC3)ccc(O)c2N1 [Example 135, 3-(3-((4-(4-(1H-Imidazol-1-yl)benzoyl)-1-oxa-4,9-diazaspiro[5.5]undecan-9-yl)methyl)phenethoxy)-N-cyclohexyl-N-(2-(2-(5-hydroxy-3-oxo-3,4-dihydro-2H-benzo[b][1,4]oxazin-8-yl)ethylamino)ethyl)propanamide] | 66 | 86 |
| Cc1ccc2[nH]c(C(=O)N3CCOC4(CCN(Cc5cccc(CCOCCC(=O)N(CCNCCc6ccc(O)c7c6OCC(=O)N7)C6CCCCC6)c5)CC4)C3)cc2c1 [Example 136, N-Cyclohexyl-N-(2-(2-(5-hydroxy-3-oxo-3,4-dihydro-2H-benzo[b][1,4]oxazin-8-yl)ethylamino)ethyl)-3-(3-((4-(5-methyl-1H-indole-2-carbonyl)-1-oxa-4,9-diazaspiro[5.5]undecan-9-yl)methyl)phenethoxy)propanamide] | 99 | 92 |
| CCOc1ccccc1C(=O)N1CCOC2(CCN(Cc3cccc(CCOCCC(=O)N(CCNCCc4ccc(O)c5c4OCC(=O)N5)C4CCCCC4)c3)CC2)C1 [Example 111, N-Cyclohexyl-3-(3-((4-(2-ethoxybenzoyl)-1-oxa-4,9-diazaspiro[5.5]undecan-9-yl)methyl)phenethoxy)-N-(2-(2-(5-hydroxy-3-oxo-3,4-dihydro-2H-benzo[b][1,4]oxazin-8-yl)ethylamino)ethyl)propanamide] | 96 | 107 |
| Cc1ccccc1OCC(=O)N1CCOC2(CCN(Cc3cccc(CCOCCC(=O)N(CCNCCc4ccc(O)c5c4OCC(=O)N5)C4CCCCC4)c3)CC2)C1 [Example 127, N-Cyclohexyl-N-(2-(2-(5-hydroxy-3-oxo-3,4-dihydro-2H-benzo[b][1,4]oxazin-8-yl)ethylamino)ethyl)-3-(3-((4-(2-(o-tolyloxy)acetyl)-1-oxa-4,9-diazaspiro[5.5]undecan-9-yl)methyl)phenethoxy)propanamide] | 97 | 110 |
| CCOc1ccccc1CC(=O)N1CCOC2(CCN(Cc3cccc(CCOCCC(=O)N(CCNCCc4ccc(O)c5c4OCC(=O)N5)C4CCCCC4)c3)CC2)C1 [Example 170, N-Cyclohexyl-3-(3-((4-(2-(2-ethoxyphenyl)acetyl)-1-oxa-4,9-diazaspiro[5.5]undecan-9-yl)methyl)phenethoxy)-N-(2-(2-(5-hydroxy-3-oxo-3,4-dihydro-2H-benzo[b][1,4]oxazin-8-yl)ethylamino)ethyl)propanamide] | 98 | 112 |
| O=C1COc2c(CCNCCN(C(=O)CCOCCc3cccc(CN4CCC5(CC4)CN(C(=O)CC46CC7CC(CC(O)(C7)C4)C6)CCO5)c3)C3CCCCC3)ccc(O)c2N1 [Example 116, N-Cyclohexyl-3-[2-[3-[[10-[2-(3-hydroxy-1-adamantyl)acetyl]-7-oxa-3,10-diazaspiro[5.5]undecan-3-yl]methyl]phenyl]ethoxy]-N-[2-[2-(5-hydroxy-3-oxo-4H-1,4-benzoxazin-8-yl)ethylamino]ethyl]propanamide] | 94 | 80 |
| O=C1COc2c(CCNCCN(C(=O)CCOCCc3cccc(CN4CCC5(CC4)CN(C(=O)c4cccs4)CCO5)c3)C3CCCCC3)ccc(O)c2N1 [Example 153, N-Cyclohexyl-N-(2-(2-(5-hydroxy-3-oxo-3,4-dihydro-2H-benzo[b][1,4]oxazin-8-yl)ethylamino)ethyl)-3-(3-((4-(thiophene-2-carbonyl)-1-oxa-4,9-diazaspiro[5.5]undecan-9-yl)methyl)phenethoxy)propanamide] | 101 | 98 |
| O=C1COc2c(CCNCCN(C(=O)CCOCCc3cccc(CN4CCC5(CC4)CN(C(=O)Cc4c[nH]c6ccccc46)CCO5)c3)C3CCCCC3)ccc(O)c2N1 [Example 141, 3-(3-((4-(2-(1H-Indol-3-yl)acetyl)-1-oxa-4,9-diazaspiro[5.5]undecan-9-yl)methyl)phenethoxy)-N-cyclohexyl-N-(2-(2-(5-hydroxy-3-oxo-3,4-dihydro-2H-benzo[b][1,4]oxazin-8-yl)ethylamino)ethyl)propanamide] | 96 | 108 |
| O=C1COc2c(CCNCCN(C(=O)CCOCCc3cccc(CN4CCC5(CC4)CN(C(=O)Cc4ccsc4)CCO5)c3)C3CCCCC3)ccc(O)c2N1 [Example 109, N-Cyclohexyl-N-(2-(2-(5-hydroxy-3-oxo-3,4-dihydro-2H-benzo[b][1,4]oxazin-8-yl)ethylamino)ethyl)-3-(3-((4-(2-(thiophen-3-yl)acetyl)-1-oxa-4,9-diazaspiro[5.5]undecan-9-yl)methyl)phenethoxy)propanamide] | 99 | 98 |

Other lines, results leading:

| inhibition at 1 µM [1] [%] | percent of formoterol maximum response at 1 µM (Adrenergic β2) [%] | SMILES |
| --- | --- | --- |
| 100 | 112 | O=C1COc2c(CCNCCN(C(=O)CCOCCc3cccc(CN4CCC5(CC4)CN(C(=O)C4(c6ccccc6)CC4)CCO5)c3)C3CCCCC3)ccc(O)c2N1 [Example 113, N-Cyclohexyl-N-(2-(2-(5-hydroxy-3-oxo-3,4-dihydro-2H-benzo[b][1,4]oxazin-8-yl)ethylamino)ethyl)-3-(3-((4-(1-phenylcyclopropanecarbonyl)-1-oxa-4,9-diazaspiro[5.5]undecan-9-yl)methyl)phenethoxy)propanamide] |
| 101 | 96 | O=C1COc2c(CCNCCN(C(=O)CCOCCc3cccc(CN4CCC5(CC4)CN(C(=O)c4cc(Br)c[nH]4)CCO5)c3)C3CCCCC3)ccc(O)c2N1 [Example 132, 3-(3-((4-(4-Bromo-1H-pyrrole-2-carbonyl)-1-oxa-4,9-diazaspiro[5.5]undecan-9-yl)methyl)phenethoxy)-N-cyclohexyl-N-(2-(2-(5-hydroxy-3-oxo-3,4-dihydro-2H-benzo[b][1,4]oxazin-8-yl)ethylamino)ethyl)propanamide] |
| 98 | 105 | O=C1COc2c(CCNCCN(C(=O)CCOCCc3cccc(CN4CCC5(CC4)CN(C(=O)c4ccc(-n6cccn6)nc4)CCO5)c3)C3CCCCC3)ccc(O)c2N1 [Example 112, 3-(3-((4-(6-(1H-Pyrazol-1-yl)nicotinoyl)-1-oxa-4,9-diazaspiro[5.5]undecan-9-yl)methyl)phenethoxy)-N-cyclohexyl-N-(2-(2-(5-hydroxy-3-oxo-3,4-dihydro-2H-benzo[b][1,4]oxazin-8-yl)ethylamino)ethyl)propanamide] |
| 84 | 87 | O=C1COc2c(CCNCCN(C(=O)CCOCCc3cccc(CN4CCC5(CC4)CN(C(=O)c4ccc(-n6cccn6)cc4)CCO5)c3)C3CCCCC3)ccc(O)c2N1 [Example 122, 3-(3-((4-(4-(1H-Pyrazol-1-yl)benzoyl)-1-oxa-4,9-diazaspiro[5.5]undecan-9-yl)methyl)phenethoxy)-N-cyclohexyl-N-(2-(2-(5-hydroxy-3-oxo-3,4-dihydro-2H-benzo[b][1,4]oxazin-8-yl)ethylamino)ethyl)propanamide] |
